Measured values from the NIST ThermoML archive (doi:10.1021/je301353z).

Experiment: xn = mol fraction of the nth substance listed
Settings: 101 kPa, Liquid; for speed of sound: Sing-around technique in a fixed-path interferometer; for mass density: Vibrating tube method

O=C1CCCN1 [2-pyrrolidinone] + c1ccncc1
Settings | mass density, 293.15 K [kg/m3] | mass density, 298.15 K [kg/m3] | mass density, 303.15 K [kg/m3] | mass density, 308.15 K [kg/m3] | speed of sound, 293.15 K [m/s] | speed of sound, 298.15 K [m/s] | speed of sound, 303.15 K [m/s] | speed of sound, 308.15 K [m/s]
x1 = 0.1333 | 1001.83 | 997.07 | 992.29 | 987.38 | 1468.5 | 1445.6 | 1426.5 | 1406.5
x1 = 0.1801 | 1008.31 | 1003.57 | 998.88 | 994.01 | 1478.1 | 1455.5 | 1436.7 | 1416.9
x1 = 0.2312 | 1015.32 | 1010.62 | 1006.02 | 1001.17 | 1488.6 | 1466.4 | 1447.9 | 1428.3
x1 = 0.2713 | 1020.76 | 1016.1 | 1011.55 | 1006.71 | 1496.9 | 1475.1 | 1456.6 | 1437.4
x1 = 0.3312 | 1028.79 | 1024.17 | 1019.7 | 1014.93 | 1509.4 | 1488.1 | 1469.8 | 1450.9
x1 = 0.3717 | 1034.17 | 1029.56 | 1025.16 | 1020.41 | 1518 | 1496.8 | 1478.8 | 1460
x1 = 0.4312 | 1041.94 | 1037.41 | 1033.04 | 1028.34 | 1530.8 | 1510 | 1491.9 | 1473.6
x1 = 0.4752 | 1047.59 | 1043.13 | 1038.77 | 1034.15 | 1540.2 | 1519.7 | 1501.8 | 1483.5
x1 = 0.5316 | 1054.74 | 1050.35 | 1046.02 | 1041.5 | 1552.3 | 1532.1 | 1514.4 | 1496.3
x1 = 0.5717 | 1059.77 | 1055.45 | 1051.12 | 1046.65 | 1560.9 | 1541 | 1523.2 | 1505.6
x1 = 0.6219 | 1065.97 | 1061.74 | 1057.4 | 1053.03 | 1571.9 | 1552.1 | 1534.4 | 1517
x1 = 0.6772 | 1072.71 | 1068.57 | 1064.23 | 1059.98 | 1583.7 | 1564.5 | 1546.7 | 1529.5
x1 = 0.7314 | 1079.26 | 1075.19 | 1070.86 | 1066.7 | 1595.4 | 1576.4 | 1558.8 | 1541.7
x1 = 0.7714 | 1084.05 | 1080.04 | 1075.69 | 1071.59 | 1603.9 | 1585.1 | 1567.6 | 1550.7
x1 = 0.8312 | 1091.16 | 1087.2 | 1082.86 | 1078.85 | 1616.4 | 1598.2 | 1580.7 | 1564.3
x1 = 0.8712 | 1095.91 | 1091.96 | 1087.64 | 1083.64 | 1624.7 | 1606.7 | 1589.3 | 1573.2
x1 = 0.9013 | 1099.48 | 1095.53 | 1091.23 | 1087.24 | 1630.8 | 1613.2 | 1596 | 1580
x1 = 0.9311 | 1103.03 | 1099.05 | 1094.78 | 1090.78 | 1636.8 | 1619.6 | 1602.4 | 1586.6

c1ccncc1 [pyridine] + CN1CCCC1=O
Settings | mass density, 293.15 K [kg/m3] | mass density, 298.15 K [kg/m3] | mass density, 303.15 K [kg/m3] | mass density, 308.15 K [kg/m3] | speed of sound, 293.15 K [m/s] | speed of sound, 298.15 K [m/s] | speed of sound, 303.15 K [m/s] | speed of sound, 308.15 K [m/s]
x2 = 0.1276 | 994.55 | 989.82 | 985.09 | 980.3 | 1467.8 | 1445 | 1425.5 | 1405.3
x2 = 0.1779 | 998.64 | 993.95 | 989.28 | 984.53 | 1478.4 | 1455.9 | 1436.8 | 1416.4
x2 = 0.2348 | 1003 | 998.35 | 993.72 | 988.98 | 1490.6 | 1468.4 | 1449.4 | 1429.1
x2 = 0.2664 | 1005.29 | 1000.65 | 996.04 | 991.33 | 1497.6 | 1475.5 | 1456.2 | 1436.2
x2 = 0.3291 | 1009.56 | 1004.94 | 1000.35 | 995.65 | 1511.1 | 1489 | 1469.8 | 1449.7
x2 = 0.3707 | 1012.2 | 1007.56 | 1002.99 | 998.31 | 1519.6 | 1498 | 1478.9 | 1458.8
x2 = 0.4328 | 1015.86 | 1011.21 | 1006.65 | 1001.96 | 1532.2 | 1510.7 | 1491.6 | 1471.5
x2 = 0.4749 | 1018.16 | 1013.51 | 1008.96 | 1004.25 | 1540.4 | 1518.6 | 1499.5 | 1479.4
x2 = 0.5215 | 1020.5 | 1015.82 | 1011.28 | 1006.63 | 1548.4 | 1527 | 1508.3 | 1487.9
x2 = 0.5647 | 1022.48 | 1017.8 | 1013.27 | 1008.63 | 1555.7 | 1534.4 | 1515.3 | 1495.4
x2 = 0.6364 | 1025.43 | 1020.74 | 1016.23 | 1011.56 | 1565.6 | 1544.5 | 1525.6 | 1505.9
x2 = 0.6778 | 1026.91 | 1022.19 | 1017.71 | 1013.05 | 1569.8 | 1549 | 1530.8 | 1510.5
x2 = 0.7312 | 1028.58 | 1023.87 | 1019.36 | 1014.76 | 1574.5 | 1553.6 | 1535.6 | 1515.4
x2 = 0.7701 | 1029.65 | 1024.9 | 1020.4 | 1015.79 | 1576.5 | 1556.2 | 1537.8 | 1518.1
x2 = 0.8321 | 1031.09 | 1026.29 | 1021.76 | 1017.16 | 1577.6 | 1557.6 | 1539.3 | 1519.7
x2 = 0.8711 | 1031.8 | 1026.99 | 1022.43 | 1017.79 | 1576.7 | 1556.8 | 1538.9 | 1519.1
x2 = 0.9011 | 1032.27 | 1027.41 | 1022.83 | 1018.17 | 1575.4 | 1555.7 | 1537.4 | 1517.6
x2 = 0.9312 | 1032.65 | 1027.76 | 1023.14 | 1018.45 | 1573.3 | 1553.5 | 1535.4 | 1515.6
